Literature values, collected in US20150335679A1, “Methods and Compositions for Treating Malignancies with Dendritic Cells” (Kiromic, LLC, priority 2014, published 2015).
Where two headings read alike, the source gives them in different places.

What was measured:
Treg = conditions: low-dose
[1] = test system: Tregs; breast tumor-reactive T cells
[2] = 50 mg orally daily for 3 months

For `O=P1(N(CCCl)CCCl)NCCCO1` (stereo not drawn) [CYP, cyclophosphamide], the “rates of disease control” value (advanced solid tumors; all CYP regimens (oral 50 mg/day, single i.v. 1,000 mg, or both) vs adenovirus only) is given as “higher rates of disease control”, the “decrease of Treg numbers” value (advanced solid tumors; metronomic groups) is given as “most effective in decreasing Treg numbers” and the “Treg number and functionality” value (Treg) is given as “decreases”. For the same compound, the Treg suppressor function (Tregs; 250 mg/m^2) was “impaired suppressor function”, the “duration of decreased Treg frequency” value (Tregs; 250 mg/m^2) was “decreased Treg frequency up to day 71” and the “Alpha-fetoprotein-specific T-cell responses” value (Tregs; lower treatment arms) was “induced”. The “absolute and relative frequency of Tregs in the blood of patients” value (Tregs; the two lower doses (150, 250 mg/m^2)) was “induced a decrease”, the “course of Tregs” value [1, 2] was “remained decreased until day 42, returning to pretreatment levels by day 84” and the “time to reduction of Tregs” value [1, 2] was no more than 14 days. The “patients with endogenous breast tumor-reactive T cells” value ([1]; day 14, 27% before CYP treatment) was 73%, the “patients with endogenous breast tumor-reactive T cells” value ([1]; day 42) was 80% and the “patients with endogenous breast tumor-reactive T cells” value ([1]; day 84) was 88%.
